Test results published in ChEMBL document CHEMBL1150155, “Purealidin S and purpuramine J, bromotyrosine alkaloids from the Fijian marine sponge Druinella sp” (2002).
Values after ≈ are worked out from the molar mass of the structure shown.

How the values were obtained:
A2780 = assay: Cytotoxicity against human A2780 cells; assay type: functional; settings: read-out: ID50 (the source's name)
K562 = assay: Cytotoxicity against human K562 cells; assay type: functional; settings: read-out: ID50 (the source's name)

Compound	IC50 (A2780)	IC50 (K562)
CNCCCOc1c(Br)cc(CCNC(=O)C2=NO[C@]3(C=C(Br)C(OC)=C(Br)[C@@H]3O)C2)cc1Br	7.44 µg/mL (≈ 10.2 µM)	6.02 µg/mL (≈ 8.23 µM)
COC1=C(Br)[C@@H](O)[C@]2(C=C1Br)CC(C(=O)NCCc1cnc[nH]1)=NO2 [AEROPHOBIN 1]	21.5 µg/mL (≈ 45.2 µM)	24.1 µg/mL (≈ 50.6 µM)
COC1=C(Br)[C@H](O)[C@@]2(C=C1Br)CC(C(=O)NCCCc1cnc(N)[nH]1)=NO2 [AEROPHOBIN 2]	> 10 µg/mL	6.91 µg/mL (≈ 13.7 µM)
COc1ccc(C/C(=N/O)C(=O)NCCc2cc(Br)c(OCCCN(C)C)c(Br)c2)cc1Br [APLYSAMINE 2]	2.83 µg/mL (≈ 4.35 µM)	1.37 µg/mL (≈ 2.11 µM)
COC1=C(Br)[C@@H](O)[C@]2(C=C1Br)CC(C(=O)NCCCOc1c(Br)cc(CCN)cc1Br)=NO2 [ARAPLYSILLIN 1]	18.6 µg/mL (≈ 25.9 µM)	27.9 µg/mL (≈ 39 µM)
COC1=C(Br)[C@H](O)[C@@]2(C=C1Br)CC(C(=O)NCCCOc1c(Br)cc(CCNC(=O)CCCCCCCCCCCC(C)C)cc1Br)=NO2 [ARAPLYSILLIN 2]	14.8 µg/mL (≈ 15.7 µM)	42.7 µg/mL (≈ 45.4 µM)
COC1=C(Br)[C@@H](O)[C@]2(C=C1Br)CC(C(=O)NCCc1cnc(N)[nH]1)=NO2 [PUREALIDIN J]	> 10 µg/mL	> 10 µg/mL
CNCCCOc1c(Br)cc(CCNC(=O)/C(Cc2ccc(OC)c(Br)c2)=N/O)cc1Br [PURPUREAMINE I]	1.7 µg/mL (≈ 2.67 µM)	1.24 µg/mL (≈ 1.95 µM)
COc1ccc(C/C(=N\O)C(=O)NCCc2cc(Br)c(OCCC[N+](C)(C)[O-])c(Br)c2)cc1Br [PURPUREAMINE J]	6.77 µg/mL (≈ 10.2 µM)	5.97 µg/mL (≈ 8.96 µM)
